Test [1] has as its target Serine/threonine-protein kinase PAK 4 (Homo sapiens, UniProt O96013).
Test [2] concerns the target T1, Serine/threonine-protein kinase TBK1 (Homo sapiens, UniProt Q9UHD2).
T1 sequence (Q9UHD2 whole entry): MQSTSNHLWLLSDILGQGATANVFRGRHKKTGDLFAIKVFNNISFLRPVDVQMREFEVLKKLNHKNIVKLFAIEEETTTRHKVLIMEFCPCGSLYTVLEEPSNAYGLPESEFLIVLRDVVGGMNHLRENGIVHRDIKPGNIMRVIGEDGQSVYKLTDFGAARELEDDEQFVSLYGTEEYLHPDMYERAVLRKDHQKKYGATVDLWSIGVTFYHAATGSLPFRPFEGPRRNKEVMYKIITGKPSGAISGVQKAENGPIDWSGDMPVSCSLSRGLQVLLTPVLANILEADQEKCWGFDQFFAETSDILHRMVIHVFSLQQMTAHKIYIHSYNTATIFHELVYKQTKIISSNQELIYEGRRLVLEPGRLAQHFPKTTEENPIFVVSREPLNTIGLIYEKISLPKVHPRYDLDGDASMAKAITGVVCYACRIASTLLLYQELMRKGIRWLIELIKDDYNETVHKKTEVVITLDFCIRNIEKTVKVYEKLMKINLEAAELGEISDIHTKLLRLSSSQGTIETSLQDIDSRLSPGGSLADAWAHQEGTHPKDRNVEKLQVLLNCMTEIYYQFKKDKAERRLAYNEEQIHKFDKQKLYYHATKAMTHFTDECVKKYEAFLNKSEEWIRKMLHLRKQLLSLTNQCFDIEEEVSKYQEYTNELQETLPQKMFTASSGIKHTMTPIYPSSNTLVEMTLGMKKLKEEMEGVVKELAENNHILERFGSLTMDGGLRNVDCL

The target in test [3] is T2, Probable ATP-dependent RNA helicase DDX6 (Homo sapiens, UniProt P26196).
T2 sequence (P26196 whole entry): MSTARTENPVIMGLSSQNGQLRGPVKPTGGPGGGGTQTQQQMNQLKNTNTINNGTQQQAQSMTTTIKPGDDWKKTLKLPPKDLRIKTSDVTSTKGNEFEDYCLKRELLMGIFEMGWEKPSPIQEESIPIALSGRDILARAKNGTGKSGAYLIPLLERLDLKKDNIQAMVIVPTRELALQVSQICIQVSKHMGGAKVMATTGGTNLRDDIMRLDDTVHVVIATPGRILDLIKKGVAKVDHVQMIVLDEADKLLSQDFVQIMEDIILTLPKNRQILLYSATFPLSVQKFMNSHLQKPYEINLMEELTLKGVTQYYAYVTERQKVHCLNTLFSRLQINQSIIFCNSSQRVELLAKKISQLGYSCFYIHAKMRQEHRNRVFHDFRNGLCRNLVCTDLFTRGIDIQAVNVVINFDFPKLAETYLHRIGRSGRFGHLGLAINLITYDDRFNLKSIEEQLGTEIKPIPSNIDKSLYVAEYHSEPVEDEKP

For test [4], the target named is Serine/threonine-protein kinase/endoribonuclease IRE2 (Homo sapiens, UniProt Q76MJ5).
Serine/threonine-protein kinase/endoribonuclease IRE2, sequence (Q76MJ5 whole entry): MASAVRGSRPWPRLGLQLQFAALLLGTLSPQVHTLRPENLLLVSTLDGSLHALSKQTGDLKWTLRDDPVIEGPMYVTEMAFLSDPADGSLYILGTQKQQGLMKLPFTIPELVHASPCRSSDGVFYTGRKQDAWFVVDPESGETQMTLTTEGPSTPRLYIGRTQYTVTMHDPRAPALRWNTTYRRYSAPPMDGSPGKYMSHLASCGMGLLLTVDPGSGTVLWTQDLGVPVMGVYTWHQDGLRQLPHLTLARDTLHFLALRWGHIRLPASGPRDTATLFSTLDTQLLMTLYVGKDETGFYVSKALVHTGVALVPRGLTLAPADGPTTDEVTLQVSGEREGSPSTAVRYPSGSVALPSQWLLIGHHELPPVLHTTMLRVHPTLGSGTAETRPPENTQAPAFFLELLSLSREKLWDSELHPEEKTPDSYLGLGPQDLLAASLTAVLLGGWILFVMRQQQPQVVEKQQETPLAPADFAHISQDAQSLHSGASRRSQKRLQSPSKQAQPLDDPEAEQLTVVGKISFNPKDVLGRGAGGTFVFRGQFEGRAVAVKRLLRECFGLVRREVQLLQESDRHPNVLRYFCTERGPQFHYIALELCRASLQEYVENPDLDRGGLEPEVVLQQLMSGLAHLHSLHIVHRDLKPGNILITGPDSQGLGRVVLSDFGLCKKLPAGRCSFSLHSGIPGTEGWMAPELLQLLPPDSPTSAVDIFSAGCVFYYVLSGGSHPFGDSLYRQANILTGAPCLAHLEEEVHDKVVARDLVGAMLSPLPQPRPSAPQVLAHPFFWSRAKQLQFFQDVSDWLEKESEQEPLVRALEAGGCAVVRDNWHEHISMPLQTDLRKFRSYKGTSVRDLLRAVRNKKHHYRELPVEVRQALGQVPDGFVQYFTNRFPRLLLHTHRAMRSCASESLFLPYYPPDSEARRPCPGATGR
Test [5] concerns the target Epidermal growth factor receptor (Homo sapiens, UniProt P00533).
The next test deals with Focal adhesion kinase 1 (Homo sapiens, UniProt Q05397).
Focal adhesion kinase 1, sequence (Q05397 whole entry): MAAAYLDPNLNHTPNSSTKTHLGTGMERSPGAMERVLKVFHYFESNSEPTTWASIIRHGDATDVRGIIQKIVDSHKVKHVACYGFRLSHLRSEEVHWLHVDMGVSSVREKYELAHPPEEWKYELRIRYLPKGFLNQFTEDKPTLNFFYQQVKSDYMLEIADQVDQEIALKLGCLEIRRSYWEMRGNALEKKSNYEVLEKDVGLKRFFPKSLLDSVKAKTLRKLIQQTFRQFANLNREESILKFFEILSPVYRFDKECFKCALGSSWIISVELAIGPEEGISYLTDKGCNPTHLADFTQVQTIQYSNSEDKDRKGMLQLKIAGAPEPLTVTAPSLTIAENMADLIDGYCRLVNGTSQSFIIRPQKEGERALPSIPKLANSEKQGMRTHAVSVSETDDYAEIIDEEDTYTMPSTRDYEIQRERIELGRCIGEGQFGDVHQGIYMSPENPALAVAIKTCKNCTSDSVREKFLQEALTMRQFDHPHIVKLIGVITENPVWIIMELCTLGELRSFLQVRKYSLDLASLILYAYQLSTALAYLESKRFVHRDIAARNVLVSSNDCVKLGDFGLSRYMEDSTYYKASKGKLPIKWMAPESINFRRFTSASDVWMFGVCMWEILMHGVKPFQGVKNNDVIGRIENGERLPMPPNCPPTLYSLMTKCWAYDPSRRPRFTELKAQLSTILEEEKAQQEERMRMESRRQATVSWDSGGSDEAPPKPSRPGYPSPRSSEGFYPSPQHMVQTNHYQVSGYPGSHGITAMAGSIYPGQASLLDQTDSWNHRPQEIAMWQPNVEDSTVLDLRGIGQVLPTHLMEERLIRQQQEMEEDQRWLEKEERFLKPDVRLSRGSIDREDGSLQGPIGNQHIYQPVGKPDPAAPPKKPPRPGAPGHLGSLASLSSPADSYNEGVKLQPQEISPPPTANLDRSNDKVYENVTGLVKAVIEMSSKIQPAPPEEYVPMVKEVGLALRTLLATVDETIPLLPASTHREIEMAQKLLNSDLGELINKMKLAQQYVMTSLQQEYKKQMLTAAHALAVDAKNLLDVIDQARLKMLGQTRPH
Test [6] addresses Mitogen-activated protein kinase 10 (Homo sapiens, UniProt P53779).
The target in test [7] is Casein kinase I isoform delta (Homo sapiens, UniProt P48730).
Casein kinase I isoform delta, sequence (P48730 whole entry, canonical isoform): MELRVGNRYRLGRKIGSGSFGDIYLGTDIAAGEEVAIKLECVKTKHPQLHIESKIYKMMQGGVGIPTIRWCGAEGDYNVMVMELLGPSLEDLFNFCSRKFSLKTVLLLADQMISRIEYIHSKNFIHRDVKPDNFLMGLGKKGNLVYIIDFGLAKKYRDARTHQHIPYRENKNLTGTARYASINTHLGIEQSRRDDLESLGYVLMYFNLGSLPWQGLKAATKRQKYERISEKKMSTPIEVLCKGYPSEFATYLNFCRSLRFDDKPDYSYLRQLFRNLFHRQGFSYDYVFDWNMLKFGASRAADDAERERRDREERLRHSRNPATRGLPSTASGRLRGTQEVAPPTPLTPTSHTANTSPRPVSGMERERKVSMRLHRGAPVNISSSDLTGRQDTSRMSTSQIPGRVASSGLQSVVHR
For test [8], the target named is Mitogen-activated protein kinase kinase kinase 20 (Homo sapiens, UniProt Q9NYL2).
Mitogen-activated protein kinase kinase kinase 20, sequence (Q9NYL2 whole entry): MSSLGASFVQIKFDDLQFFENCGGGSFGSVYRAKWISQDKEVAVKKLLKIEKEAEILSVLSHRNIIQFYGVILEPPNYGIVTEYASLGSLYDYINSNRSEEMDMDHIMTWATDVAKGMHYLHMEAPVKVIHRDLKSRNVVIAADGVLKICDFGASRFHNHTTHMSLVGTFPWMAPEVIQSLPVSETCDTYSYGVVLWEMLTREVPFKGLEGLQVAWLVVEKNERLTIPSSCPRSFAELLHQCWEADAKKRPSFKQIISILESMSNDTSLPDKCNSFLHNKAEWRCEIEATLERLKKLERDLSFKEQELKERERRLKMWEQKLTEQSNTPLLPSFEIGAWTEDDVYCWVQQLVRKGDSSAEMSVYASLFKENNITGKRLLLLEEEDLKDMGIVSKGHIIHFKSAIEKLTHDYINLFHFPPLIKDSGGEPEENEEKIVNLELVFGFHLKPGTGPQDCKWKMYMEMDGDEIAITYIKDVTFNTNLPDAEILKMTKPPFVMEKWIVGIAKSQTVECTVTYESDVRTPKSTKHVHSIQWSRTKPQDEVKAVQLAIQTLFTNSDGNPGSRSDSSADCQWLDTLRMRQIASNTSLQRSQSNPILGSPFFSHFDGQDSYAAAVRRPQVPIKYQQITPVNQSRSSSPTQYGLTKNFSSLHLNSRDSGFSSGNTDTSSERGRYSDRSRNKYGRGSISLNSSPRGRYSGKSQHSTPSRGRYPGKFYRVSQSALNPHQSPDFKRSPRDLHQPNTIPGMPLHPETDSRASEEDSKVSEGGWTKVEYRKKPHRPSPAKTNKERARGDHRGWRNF
The target in test [9] is Casein kinase II subunit alpha' (Homo sapiens, UniProt P19784).
The target of test [10] is T3, Membrane-associated tyrosine- and threonine-specific cdc2-inhibitory kinase (Homo sapiens, UniProt Q99640).
T3 sequence (Q99640 whole entry): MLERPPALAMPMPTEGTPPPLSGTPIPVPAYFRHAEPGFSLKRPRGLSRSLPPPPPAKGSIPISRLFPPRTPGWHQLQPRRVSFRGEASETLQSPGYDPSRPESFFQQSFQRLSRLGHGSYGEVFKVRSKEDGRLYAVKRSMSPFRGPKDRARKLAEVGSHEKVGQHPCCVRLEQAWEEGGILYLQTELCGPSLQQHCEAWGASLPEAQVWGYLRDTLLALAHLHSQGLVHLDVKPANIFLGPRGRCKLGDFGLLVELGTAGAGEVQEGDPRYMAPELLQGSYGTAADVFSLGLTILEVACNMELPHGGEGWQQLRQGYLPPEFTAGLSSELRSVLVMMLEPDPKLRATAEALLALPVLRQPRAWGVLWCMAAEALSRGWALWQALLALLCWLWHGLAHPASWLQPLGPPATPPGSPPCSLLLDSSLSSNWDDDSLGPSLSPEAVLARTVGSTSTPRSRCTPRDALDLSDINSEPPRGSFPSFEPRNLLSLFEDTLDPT

Test [11] deals with Tyrosine-protein kinase Yes (Homo sapiens, UniProt P07947).
A further test addresses Ephrin type-A receptor 7 (Homo sapiens, UniProt Q15375).

The results in this text go back to ChEMBL document CHEMBL3991601, “The target landscape of clinical kinase drugs” (Science, 2017).

The structures appear in SMILES notation. pKd: −log10 of the molar value. Active and inactive are the calls of the source. Rule as the data show it, for most assays here: actives have a measured Kd and inactives only a lower limit. Where only a bound is given, the exact number is not on record here.

For orientation: Kd means the equilibrium constant for the complex coming apart. The pKd is the negative decadic logarithm of the Kd, by convention in mol/L.
Also: in the data inactive means no Kd found up to 30 µM.

Epidermal growth factor receptor, sequence (P00533 whole entry): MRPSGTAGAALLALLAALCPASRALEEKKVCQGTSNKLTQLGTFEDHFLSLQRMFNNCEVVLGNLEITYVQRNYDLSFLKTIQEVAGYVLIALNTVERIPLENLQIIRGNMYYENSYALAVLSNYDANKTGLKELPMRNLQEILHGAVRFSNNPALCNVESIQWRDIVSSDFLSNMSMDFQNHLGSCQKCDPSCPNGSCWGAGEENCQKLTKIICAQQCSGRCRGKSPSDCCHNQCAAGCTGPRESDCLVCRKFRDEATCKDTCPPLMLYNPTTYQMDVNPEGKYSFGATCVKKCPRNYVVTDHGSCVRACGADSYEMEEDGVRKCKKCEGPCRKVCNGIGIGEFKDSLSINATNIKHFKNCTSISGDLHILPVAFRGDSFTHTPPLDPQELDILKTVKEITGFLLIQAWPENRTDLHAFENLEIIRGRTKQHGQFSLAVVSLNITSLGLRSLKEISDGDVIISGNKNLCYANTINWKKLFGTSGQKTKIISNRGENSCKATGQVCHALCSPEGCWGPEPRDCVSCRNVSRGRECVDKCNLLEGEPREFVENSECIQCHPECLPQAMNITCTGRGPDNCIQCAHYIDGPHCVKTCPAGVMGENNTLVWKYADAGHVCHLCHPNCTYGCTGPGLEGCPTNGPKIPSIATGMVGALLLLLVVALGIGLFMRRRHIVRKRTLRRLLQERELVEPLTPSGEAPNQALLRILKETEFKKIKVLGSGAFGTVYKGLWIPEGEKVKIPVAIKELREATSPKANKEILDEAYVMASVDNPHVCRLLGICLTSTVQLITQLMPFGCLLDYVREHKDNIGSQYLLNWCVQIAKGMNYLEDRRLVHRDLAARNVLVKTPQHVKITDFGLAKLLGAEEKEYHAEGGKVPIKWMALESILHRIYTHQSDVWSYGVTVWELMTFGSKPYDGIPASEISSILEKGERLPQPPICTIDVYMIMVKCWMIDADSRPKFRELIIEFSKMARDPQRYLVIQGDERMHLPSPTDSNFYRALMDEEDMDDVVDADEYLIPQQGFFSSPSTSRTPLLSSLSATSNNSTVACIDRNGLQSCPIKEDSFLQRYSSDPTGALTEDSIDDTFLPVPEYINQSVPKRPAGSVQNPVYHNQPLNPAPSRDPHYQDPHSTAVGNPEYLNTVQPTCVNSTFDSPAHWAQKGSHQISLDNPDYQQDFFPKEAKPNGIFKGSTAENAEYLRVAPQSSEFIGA
Mitogen-activated protein kinase 10, sequence (P53779 whole entry, canonical isoform): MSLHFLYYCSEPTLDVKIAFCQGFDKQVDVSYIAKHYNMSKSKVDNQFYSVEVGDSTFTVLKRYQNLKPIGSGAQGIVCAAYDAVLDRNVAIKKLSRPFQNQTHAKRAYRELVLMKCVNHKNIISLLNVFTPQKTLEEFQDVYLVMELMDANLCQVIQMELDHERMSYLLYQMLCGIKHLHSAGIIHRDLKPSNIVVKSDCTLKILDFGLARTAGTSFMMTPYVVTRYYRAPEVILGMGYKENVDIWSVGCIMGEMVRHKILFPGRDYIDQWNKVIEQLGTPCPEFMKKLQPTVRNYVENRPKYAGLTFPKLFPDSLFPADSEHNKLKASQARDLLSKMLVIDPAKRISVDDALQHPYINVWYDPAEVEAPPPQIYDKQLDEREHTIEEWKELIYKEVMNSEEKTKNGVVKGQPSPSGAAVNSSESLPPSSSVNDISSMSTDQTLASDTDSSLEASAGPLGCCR

With `C[C@H]1CNCCCN1S(=O)(=O)c1cccc2cncc(F)c12`, the Kd (in test [1]; in test [2]; in test [3]; in test [4]; in [5]; at Focal adhesion kinase 1) was > 30 µM (inactive) each time. Moreover, the Kd in [6], in test [7], in test [8], in test [9], in test [10] and in test [11] was > 30 µM (inactive) each time.
In the case of `NC(=O)Nc1cc(-c2cccc(F)c2)sc1C(=O)N[C@H]1CCCNC1` [AZD-7762], the Kd was 0.166 µM (active) in test [1]; > 30 µM (inactive) in test [2]; > 30 µM (inactive) in test [3]; > 30 µM (inactive) in test [4]; 0.948 µM (active) at Focal adhesion kinase 1; > 30 µM (inactive) in test [6]. In addition, the Kd in test [7] is > 30 µM (inactive); in test [8] it was > 30 µM (inactive); on Ephrin type-A receptor 7, > 30 µM (inactive); in [9] it was 3.15 µM (active); in test [10], > 30 µM (inactive).
As to `Cc1cc(C(=O)NOCCO)c(Nc2ccc(I)cc2F)n(C)c1=O` [AZD-8330], the Kd (in [1]; in [2]; in [3]; in [4]; in test [5]; at Focal adhesion kinase 1) was > 30 µM (inactive) throughout. In addition, the Kd in test [6], in test [7], in test [8], in test [9], in [10] and in test [11] was > 30 µM (inactive) throughout.
As to `COc1cc2ncnc(Oc3cccc(NC(=O)Nc4cc(C(C)(C)C(F)(F)F)on4)c3)c2cc1OC` [CEP-32496], the Kd (in test [1]; in [2]; in [3]; in test [4]; on Focal adhesion kinase 1; in test [7]) was > 30 µM (inactive) in each case. For the same compound, the Kd in [8] was 0.998 µM (active); on Ephrin type-A receptor 7, > 30 µM (inactive); in test [9] it was > 30 µM (inactive); in [10], > 30 µM (inactive); in test [11] it was > 30 µM (inactive). The same compound showed a pKd in test [6] of 6.42.
In the case of `COCC(=O)NC/C=C/c1ccc2ncnc(Nc3ccc(Oc4ccc(C)nc4)c(C)c3)c2c1` [CP-724714], the Kd (in test [1]; in test [2]; in test [3]; in test [4]; at Focal adhesion kinase 1; in [6]) was > 30 µM (inactive) in each case. Besides, the Kd (in test [7]; in test [8]; at Ephrin type-A receptor 7; in [9]; in [10]; in test [11]) was > 30 µM (inactive) in each case.
`CC(C)(C)c1nc(-c2cccc(NS(=O)(=O)c3c(F)cccc3F)c2F)c(-c2ccnc(N)n2)s1` [DABRAFENIB]: the Kd (in test [1]; in [2]; in test [3]; on Focal adhesion kinase 1; in test [6]; in [7]) was > 30 µM (inactive) in each case. Also, the Kd in test [8] was 0.184 µM (active); at Ephrin type-A receptor 7 it was > 30 µM (inactive); in [10], > 30 µM (inactive). The negative-log Kd (pKd) is 6.94 in test [4] and 5.89 in test [11].
For the compound `Cc1nc2cc(-n3ncc(C(=O)c4cc5ccccc5[nH]4)c3N)ccc2[nH]1` [FGFR INHIBITOR DEBIO 1347], the Kd (in [1]; in test [2]; in [3]; in test [4]; in test [5]; at Focal adhesion kinase 1) was > 30 µM (inactive) each time. Also, the Kd in test [6], in test [7], in test [8], in test [9], in test [10] and in test [11] was > 30 µM (inactive) in each case.
With `CNC(=O)c1nn(C)c2c1C(C)(C)Cc1cnc(Nc3ccc(N4CCN(C)CC4)cc3)nc1-2` [MILCICLIB], the Kd in test [1] was > 30 µM (inactive); in [2], 2.09 µM (active); in test [3], > 30 µM (inactive); in test [4], > 30 µM (inactive); at Focal adhesion kinase 1, > 30 µM (inactive); in test [7], 0.236 µM (active). For the same compound, the Kd in test [8] was > 30 µM (inactive); at Ephrin type-A receptor 7, > 30 µM (inactive); in test [9], 3.5 µM (active); in [10], > 30 µM (inactive); in test [11], 3.79 µM (active).
As to `CO[C@H]1C[C@@H]2CC[C@@H](C)[C@@](O)(O2)C(=O)C(=O)N2CCCC[C@H]2C(=O)O[C@H]([C@H](C)C[C@@H]2CC[C@@H](OP(C)(C)=O)[C@H](OC)C2)CC(=O)[C@H](C)/C=C(\C)[C@@H](O)[C@@H](OC)C(=O)[C@H](C)C[C@H](C)/C=C/C=C/C=C/1C` [RIDAFOROLIMUS], the Kd (in test [1]; in [2]; in [3]; in [4]; in test [5]; on Focal adhesion kinase 1) was > 30 µM (inactive) in each case. In addition, the Kd in [6], in test [7], in test [8], in test [9], in [10] and in [11] was > 30 µM (inactive) in each case.
As to `CO[C@H]1C[C@@H]2CC[C@@H](C)[C@@](O)(O2)C(=O)C(=O)N2CCCC[C@H]2C(=O)O[C@H]([C@H](C)C[C@@H]2CC[C@@H](O)[C@H](OC)C2)CC(=O)[C@H](C)/C=C(\C)[C@@H](O)[C@@H](OC)C(=O)[C@H](C)C[C@H](C)/C=C/C=C/C=C/1C` [SIROLIMUS], the Kd (in test [1]; in test [2]; in test [3]; in test [4]; in test [5]; on Focal adhesion kinase 1) was > 30 µM (inactive) throughout. The Kd in [6], in [7], in test [8], in [9], in test [10] and in test [11] was > 30 µM (inactive) each time.
